From ChEMBL document CHEMBL1131721, “Adenosine-5'-carboxylic acid peptidyl derivatives as inhibitors of protein kinases” (Bioorg Med Chem Lett, 1999)
pIC50: −log10 of the molar value. Residues, ends and D or L forms follow the SMILES beside them. *: point of attachment. X1 = Nc1ncnc2c1ncn2C1O[C@H](C(=O)*)[C@@H](O)[C@H]1O; Ahx = NCCCCCC(=O)O

Assays:
[1] = Inhibition of Casein kinase 1 from rat liver
CaM kinase I alpha = biological target: T1, CaM kinase I alpha (Zea mays, UniProt O04417); experiment: Inhibition of Calcium-dependent protein kinase 1 (CDPK-1) from maize seedlings
T1 sequence (O04417 whole entry): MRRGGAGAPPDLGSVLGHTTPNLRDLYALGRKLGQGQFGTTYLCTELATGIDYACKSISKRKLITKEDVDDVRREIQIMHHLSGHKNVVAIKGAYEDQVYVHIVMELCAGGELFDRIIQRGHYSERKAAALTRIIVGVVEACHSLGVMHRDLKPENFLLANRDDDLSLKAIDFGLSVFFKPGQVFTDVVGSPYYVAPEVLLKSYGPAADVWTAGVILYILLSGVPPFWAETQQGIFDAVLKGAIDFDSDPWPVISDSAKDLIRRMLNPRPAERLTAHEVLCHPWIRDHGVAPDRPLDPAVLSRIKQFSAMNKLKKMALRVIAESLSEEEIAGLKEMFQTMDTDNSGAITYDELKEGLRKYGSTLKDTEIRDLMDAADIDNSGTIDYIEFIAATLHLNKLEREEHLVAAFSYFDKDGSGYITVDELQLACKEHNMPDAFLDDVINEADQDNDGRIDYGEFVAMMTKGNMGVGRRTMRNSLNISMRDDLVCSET

[2] = Inhibition of Casein kinase 2 from rat liver
[3] = Inhibition of murine Protein kinase A; parameters: species or system Mus musculus
[4] = Inhibition of Casein kinase 2 from rat liver at 100 uM (No inhibition)
[5] = Inhibition of murine Protein kinase A at 100 uM (No inhibition); parameters: species or system Mus musculus

| Structure (SMILES) | pIC50 [1] | pIC50 (CaM kinase I alpha) | pIC50 [2] | pIC50 [3] | pIC50 ([2]; read-out: IC50) | IC50 [4] | IC50 [2] | IC50 [5] |
| --- | --- | --- | --- | --- | --- | --- | --- | --- |
| C[C@H](NC(=O)CCNC(=O)CCNC(=O)[C@H]1OC(n2cnc3c(N)ncnc32)[C@H](O)[C@@H]1O)C(=O)N[C@@H](CCCNC(=N)N)C(=O)N[C@@H](CCCNC(=N)N)C(=O)N[C@@H](CCCNC(=N)N)C(=O)N[C@@H](CCCNC(=N)N)C(=O)N[C@@H](CCCNC(=N)N)C(=O)N[C@@H](CCCNC(=N)N)C(=O)O (stereo partly specified) | < 4.00 | 4.80 | ≤ 4.52 | 5.37 | – | – | – | – |
| Nc1ncnc2c1ncn2[C@@H]1O[C@H](CO)[C@@H](O)[C@H]1O [ADENOSINE] | 3.90 | 3.94 | – | 3.85 | < 3.52 | – | – | – |
| N=C(N)NCCC[C@H](NC(=O)[C@H](CCCNC(=N)N)NC(=O)[C@H](CCCNC(=N)N)NC(=O)[C@H](CCCNC(=N)N)NC(=O)[C@H](CCCNC(=N)N)NC(=O)[C@H](CCCNC(=N)N)NC(=O)CCCCCCCCCCNC(=O)[C@H]1OC(n2cnc3c(N)ncnc32)[C@H](O)[C@@H]1O)C(=O)O (stereo partly specified) | < 4.52 | 5.31 | – | 6.48 | – | Not Active | – | – |
| CC(=O)NCCCCCC(=O)N[C@@H](CCCN=C(N)N)C(=O)N[C@@H](CCCNC(=N)N)C(=O)N[C@@H](CCCNC(=N)N)C(=O)N[C@@H](CCCNC(=N)N)C(=O)N[C@@H](CCCNC(=N)N)C(=O)N[C@@H](CCCN=C(N)N)C(=O)O (stereo in doubt) | < 4.00 | < 4.30 | – | < 4.00 | – | Not Active | – | – |
| N=C(N)NCCC[C@@H](NC(=O)[C@@H](CCCNC(=N)N)NC(=O)CCCCCNC(=O)[C@H]1OC(n2cnc3c(N)ncnc32)[C@H](O)[C@@H]1O)C(=O)O (stereo partly specified) | – | 4.46 | – | – | – | – | – | – |
| N=C(N)NCCC[C@H](NC(=O)[C@H](CCCNC(=N)N)NC(=O)[C@H](CCCNC(=N)N)NC(=O)[C@H](CCCNC(=N)N)NC(=O)[C@H](CCCNC(=N)N)NC(=O)[C@H](CCCNC(=N)N)NC(=O)CCNC(=O)[C@H]1OC(n2cnc3c(N)ncnc32)[C@H](O)[C@@H]1O)C(=O)O (stereo partly specified) | < 4.52 | 4.42 | – | 5.74 | – | – | Not Active | – |
| N=C(N)NCCC[C@H](NC(=O)[C@H](CCCNC(=N)N)NC(=O)[C@H](CCCNC(=N)N)NC(=O)[C@H](CCCNC(=N)N)NC(=O)[C@H](CCCNC(=N)N)NC(=O)[C@H](CCCNC(=N)N)NC(=O)CCCCCCCNC(=O)[C@H]1OC(n2cnc3c(N)ncnc32)[C@H](O)[C@@H]1O)C(=O)O (stereo partly specified) | < 4.52 | 5.49 | – | 6.62 | < 4.52 | – | – | – |
| NC(N)=NCCC[C@@H](N)C(=O)N[C@H](CCCN=C(N)N)C(=O)N[C@H](CCCN=C(N)N)C(=O)N[C@H](CCCN=C(N)N)C(=O)N[C@H](CCCN=C(N)N)C(=O)N[C@H](CCCN=C(N)N)C(=O)O | < 4.00 | < 4.30 | – | – | – | Not Active | – | Not Active |
| N=C(N)NCCC[C@H](NC(=O)[C@H](CCCNC(=N)N)NC(=O)[C@H](CCCNC(=N)N)NC(=O)[C@H](CCCNC(=N)N)NC(=O)CCCCCNC(=O)[C@H]1OC(n2cnc3c(N)ncnc32)[C@H](O)[C@@H]1O)C(=O)O (stereo partly specified) ({X1-Ahx}-RRRR-OH) | – | 4.28 | – | – | – | – | – | – |
| C[C@H](NC(=O)C[C@H](NC(=O)C[C@H](NC(=O)[C@H]1O[C@@H](n2cnc3c(N)ncnc32)[C@H](O)[C@@H]1O)C(=O)O)C(=O)O)C(=O)N[C@@H](CCCNC(=N)N)C(=O)N[C@@H](CCCNC(=N)N)C(=O)N[C@@H](CCCNC(=N)N)C(=O)N[C@@H](CCCNC(=N)N)C(=O)N[C@@H](CCCNC(=N)N)C(=O)N[C@@H](CCCNC(=N)N)C(=O)O | < 4.52 | < 4.30 | – | 4.95 | < 4.52 | – | – | – |
| N=C(N)NCCC[C@H](NC(=O)[C@H](CCCNC(=N)N)NC(=O)[C@H](CCCNC(=N)N)NC(=O)[C@H](CCCNC(=N)N)NC(=O)[C@H](CCCNC(=N)N)NC(=O)[C@H](CCCNC(=N)N)NC(=O)CCCCCNC(=O)[C@H]1OC(n2cnc3c(N)ncnc32)[C@H](O)[C@@H]1O)C(=O)O (stereo partly specified) | < 4.52 | 5.92 | – | 6.92 | < 4.52 | – | – | – |
| N=C(N)NCCC[C@H](NC(=O)[C@H](CCCNC(=N)N)NC(=O)[C@H](CCCNC(=N)N)NC(=O)[C@H](CCCNC(=N)N)NC(=O)[C@H](CCCNC(=N)N)NC(=O)[C@H](CCCNC(=N)N)NC(=O)CNC(=O)[C@H]1OC(n2cnc3c(N)ncnc32)[C@H](O)[C@@H]1O)C(=O)O (stereo partly specified) | < 4.52 | 4.17 | – | 5.40 | < 4.52 | – | – | – |
| N=C(N)NCCC[C@H](NC(=O)[C@H](CCCNC(=N)N)NC(=O)[C@H](CCCNC(=N)N)NC(=O)[C@H](CCCNC(=N)N)NC(=O)[C@H](CCCNC(=N)N)NC(=O)[C@H](CCCNC(=N)N)NC(=O)CCCNC(=O)[C@H]1OC(n2cnc3c(N)ncnc32)[C@H](O)[C@@H]1O)C(=O)O (stereo partly specified) | < 4.52 | 4.72 | – | 5.89 | < 4.52 | – | – | – |
